This is an account of results in paper PMC10809383, “Synthesis and migrastatic activity of cytochalasin analogues lacking a macrocyclic moiety” (RSC Medicinal Chemistry, 2023).

For experiment [1], the system named is human melanoma cell line BLM. Nature of the experiment: Spheroid invasion assay (migrastatic activity). Particulars: 24 h; for migrastatic activity (cell migration, in words): 10 μM, BLM spheroid invasion; for rel. spheroid area: 10 µM, BLM spheroids in collagen, DMSO control 1.02. The class given is cell-based. The protocol:
Compounds 17, 20, and 22–30 were screened for their migrastatic activity using a spheroid invasion assay with the human melanoma cell line BLM.[46] Spheroids were formed and subsequently treated with cytochalasin analogues at a concentration of 10 μM for 24 h. CytB (1) and CytD (2) served as reference compounds for comparison. There was no significant increase in cell migration observed for any of the compounds tested. […] However, the effect was less profound than that of the reference compounds 1 and 2.
The spheroid invasion assay was performed following a previously published protocol.[63] Briefly, BLM cells were grown as spheroids using 3D Petri Dish (Microtissues). After 2 days of spheroid formation, 1.5 mg mL^−1 collagen solution (rat tail, collagen type I) was prepared (1.5 mg mL^−1 rat-tail collagen, 1× DMEM, 1% (v/v) FBS) and added at the bottom of a 96-well plate. Spheroids were embedded into the collagen (one spheroid per well) and covered with another layer of the gel. Collagen was polymerized at 37 °C and subsequently overlaid with a cultivation medium. Images of spheroids were taken with Leica TCS SP2 microscope (5×/0.15 dry objective; LAS X Life Science Microscope software) immediately after their seeding into collagen and again after 24 h. The area of the spheroids at 0 and 24 h was measured using FiJi (Rasband, W.S., ImageJ, NIH, Bethesda, MD, USA). Cellular invasiveness was determined as an increase in spheroid area within 24 h. Three independent experiments were conducted with at least 8 spheroids analysed in each experiment. Statistical analysis was performed in GraphPad using one-way ANOVA. For numeric data and representative images from this assay, see ESI, ^† Table S1 and Fig. S1.
Table S1: Spheroid invasion assay with BLM cell line at 10 µM concentration, 24 h.
Figure S1: Representative images of BLM cell spheroid invasion assay with or without
inhibitor. Images were taken at 0 h and 24 h. using a Leica TCS SP2 microscope (5x/0.15
dry objective). DMSO (first column) was used as a control. Scale bar 500 µm.

The target in a further experiment is T1, actin (Oryctolagus cuniculus, UniProt P68135).
T1 construct: purchased Cytoskeleton, Inc, Denver, CO
Kind of experiment: Actin polymerization assay (pyrene-actin, Actin Polymerization Biochem Kit). Type of experiment: biochemical. To be noted: 10 μM, in vitro. The protocol: To further ascertain the compounds' interference with actin polymerization, the active compounds, along with CytB (1) as a positive control and compound 26 as a negative control, were subjected to an in vitro actin polymerization assay (Fig. 2B). […] This correlation between actin inhibitory activity and migrastatic effect underscores the pivotal role of actin polymerization inhibition in mediating the observed migrastatic activity.
Actin polymerization assay was performed using Actin Polymerization Biochem Kit™ (Cytoskeleton, Inc, Denver, CO) according to the manufacturer protocol. Briefly, 25 μL of G-buffer containing labelled pyrene-actin (0.4 mg mL^−1) and 2.48 μL of either DMSO (10 μM, control) or inhibitor (10 μM) was added in […] well plate. Actin polymerization was initiated by the addition of 2.48 μL of 10× actin polymerization buffer and analysed in time until fluorescent signal plateau was reached using a spectrophotometer (Infinite 200 PRO, Tecan Life Sciences, Tecan Group Ltd., Zürich, CHE). The fluorescence emission intensity of actin polymerization was measured at 420 nm and 360 nm was used as excitation wavelength. Statistical analysis was performed in GraphPad using one-way ANOVA. Measurements were performed in three independent repetitions each consisting of at least three technical replicates. For a representative graph from this assay, see ESI, ^† Fig. S2.

For experiment [2], the system named is human melanoma cells (BLM). Nature of the experiment: WST-1 viability assay, BLM cells. Type of experiment: cell-based. To be noted: for IC50: Homo sapiens, 72 h treatment, WST-1 assay, 2D culture, 0–50 μM; for selectivity index (SI): MRC-5 versus BLM, 72 h, WST-1. The protocol: (§1) In addition, the cytotoxic activity of compounds 17, 20, and 22–30 was assessed by the WST-1 viability assay using BLM (human melanoma) and MRC-5 (noncancerous human fibroblasts) cells growing in a monolayer (2D cultures, Table 2) after 72 h of treatment.
(§2) Human cells from melanoma (BLM) and human lung fibroblasts (MRC-5, Merck, USA) were used to evaluate in vitro cytotoxicity of the prepared compounds. The cells were maintained at the exponential phase of growth (passaging done by trypsin–EDTA solution) in DMEM and MEM, for BLM and MRC-5, respectively, with stable L-glutamine and supplemented with 10% fetal bovine serum (Thermo Fisher Scientific, USA). The cells were kept in an incubator at 37 °C, 5% CO2 in the atmosphere, and 95% humidity.
(§3) The compound cytotoxicity was determined by a WST-1 viability assay (Merck, USA). The amount of 5000 BLM and MRC-5 cells were seeded into individual wells of 96-well plates in 100 μL of cell cultivation media and maintained in an incubator for 16 h. After this period, the cells were treated with a concentration series (0–50 μM) of the tested compounds diluted in another 100 μL of cultivation media, which was added to the wells containing cells and incubated for 72 h. Then, BLM and MRC-5 cell viability was evaluated by WST-1 agent (5% v/v solution in phenol red-free DMEM media), i.e., the cell media was discarded and 100 μL of WST-1 solution was added. After 2 h incubation, the absorbance of formazan, derived from the WST-1 tetrazolium salt was determined spectrophotometrically at 450 nm (reference at 650 nm) by a UV-vis spectrophotometer (Bio-Rad, USA). Untreated cells, cells treated only with a vehicle, and cells treated with cytochalasin B (1) and D (2) served as controls. The measurement occurred in three independent repetitions each of which consisted of three technical replicates. The data were plotted as dose–response curves from which the half-maximal inhibitory concentrations (IC50) were calculated using AAT Bioquest.
On the technique in general: Tetrazolium assays rely on reduction of a dye to a coloured formazan, in cell work by metabolically active cells.

In experiment [3] the test system is human fibroblasts (MRC-5). Kind of experiment: WST-1 viability assay, MRC-5 cells. The class given is cell-based. To be noted: MRC5, 72 h treatment, WST-1 assay, 2D culture, 0–50 μM. On the procedure: as §1, §2, §3
Experiment [4] relates to HT1080 fibrosarcoma cells. Nature of the experiment: Fluorescence microscopy of actin cytoskeleton (SPY650-FastAct time-lapse). Type of experiment: cell-based. Particulars: 10 μM, within 2 min of addition. The protocol: Next, we conducted experiments to assess the impact of compound 24, CytB (1) and CytD (2) on the actin cytoskeleton using fluorescence microscopy in HT1080 fibrosarcoma cells (Fig. 3). […] Therefore, we increased the concentration up to 50 μM.
HT1080 cells were seeded into 12-well glass bottom plate and stained with SPY650-FastAct™ following manufacturer's protocol. Untreated cells (control) were imaged every 20 s for 15 min using Leica TCS SP2 microscope (40×/0.6 dry objective). Afterwards, an inhibitor (compound 24 at 10 μM; 50 μM or compound 1 and 2 at 10 μM) was added into the same well and its effect was recorded for 15 min (20 s/image). All video recordings were analyzed using FiJi (Rasband, W.S., ImageJ, NIH, Bethesda, MD, USA).

“Also recorded” adds a separate entry of the source.

On to `COC(=O)[C@@]12C(=O)N[C@@H](Cc3ccccc3)[C@@H]1[C@H](C)C(C)=C[C@@H]2CCCOCc1ccccc1` [Compound 20, Methyl (1S,3aR,4S,7S,7aR)-1-benzyl-4-(3-(benzyloxy)propyl)-6,7-dimethyl-3-oxo-1,2,3,4,7,7a-hexahydro-3aH-isoindole-3a-carboxylate], for which, in experiment [1], the “migrastatic activity (cell migration, in words)” value (“migrastatic activity” for short) was “significant decrease in cell migration; also recorded: modest migrastatic activity” and the rel. spheroid area stood at 0.56. Besides, at actin, the “inhibition of actin polymerization (in words)” value is reported as “inhibit actin polymerization”. Further, in experiment [2], the 50% inhibitory concentration (IC50) turned out to be 28.4 ± 0.59 µM and the “selectivity index (SI)” value came to 1.0. In experiment [3], this compound showed a concentration for half-maximal inhibition (IC50) of 28.6 ± 1.86 µM.
On to `COC(=O)[C@@]12C(=O)N[C@@H](Cc3ccccc3)[C@@H]1[C@H](C)[C@@](C)(O)[C@@H](O)[C@@H]2CCOCCc1ccc(OC)cc1` [Compound 23b, Methyl (1S,3aS,4R,5S,6R,7S,7aR)-1-benzyl-5,6-dihydroxy-4-(2-(4-methoxyphenethoxy)ethyl)-6,7-dimethyl-3-oxooctahydro-3aH-isoindole-3a-carboxylate], for which the rel. spheroid area in experiment [1] is 1.10. Moreover, the IC50 in experiment [2] and in experiment [3] was more than 50 µM throughout.
`COC(=O)[C@@]12C(=O)N[C@@H](Cc3ccccc3)[C@@H]1[C@H](C)[C@@](C)(O)[C@@H](O)[C@@H]2CCOCCc1ccc(Br)cc1` [Compound 23h, Methyl (1S,3aS,4R,5S,6R,7S,7aR)-1-benzyl-4-(2-(4-bromophenethoxy)ethyl)-5,6-dihydroxy-6,7-dimethyl-3-oxooctahydro-3aH-isoindole-3a-carboxylate] returned a rel. spheroid area in experiment [1] of 0.93. In experiment [2], the half-maximal inhibitory concentration (IC50) was found to be 23 ± 2.17 µM and the “selectivity index (SI)” value is reported as more than 2.2. In addition, the IC50 in experiment [3] was more than 50 µM.
As for `COC(=O)[C@@]12C(=O)N[C@@H](Cc3ccccc3)[C@@H]1C(C)=C(C)[C@@H](O)[C@@H]2CCOCCc1ccccc1` [Compound 25, Methyl (1S,3aS,4R,5S,7aR)-1-benzyl-5-hydroxy-6,7-dimethyl-3-oxo-4-(2-phenethoxyethyl)-1,2,3,4,5,7a-hexahydro-3aH-isoindole-3a-carboxylate], in experiment [1], the “migrastatic activity” value is given as “inactivity” and the rel. spheroid area came to 1.15. The IC50 in experiment [2] is more than 50 µM. In experiment [3], the half-inhibitory concentration (IC50) was more than 50 µM.
`COC(=O)[C@@]12C(=O)N[C@@H](Cc3ccccc3)[C@@H]1[C@H](C)[C@@](C)(Cl)[C@H](O)[C@@H]2CCOCCc1ccccc1` [Compound 26, Methyl (1S,3aS,4R,5R,6R,7S,7aR)-1-benzyl-6-chloro-5-hydroxy-6,7-dimethyl-3-oxo-4-(2-phenethoxyethyl)octahydro-3aH-isoindole-3a-carboxylate] gave a rel. spheroid area in experiment [1] of 0.88. Further, the IC50 in experiment [2] and in experiment [3] was more than 50 µM each time.
As for `C=C1[C@@H](C)[C@H]2[C@H](Cc3ccccc3)NC(=O)[C@@]2(C(=O)OC)[C@@H](CCOCCc2ccccc2)[C@@H]1OC(C)=O` [Compound 27, Methyl (1S,3aS,4R,5S,7S,7aR)-5-acetoxy-1-benzyl-7-methyl-6-methylene-3-oxo-4-(2-phenethoxyethyl)octahydro-3aH-isoindole-3a-carboxylate], in experiment [1], the “migrastatic activity” value is “inactive”. Moreover, the rel. spheroid area in experiment [1] worked out at 0.89. The IC50 in experiment [2] and in experiment [3] was more than 50 µM throughout.
In experiment [1], `COC(=O)[C@@]12C(=O)N[C@@H](Cc3ccccc3)[C@@H]1C(C)=C(C)[C@@H](OC(C)=O)[C@@H]2CCOCCc1ccccc1` [Compound 28, Methyl (1S,3aS,4R,5S,7aR)-5-acetoxy-1-benzyl-6,7-dimethyl-3-oxo-4-(2-phenethoxyethyl)-1,2,3,4,5,7a-hexahydro-3aH-isoindole-3a-carboxylate] had a rel. spheroid area of 0.72. The 50% inhibitory concentration (IC50) in experiment [2] and in experiment [3] was more than 50 µM each time.
In experiment [1], `CC1=C[C@H](CCOCCc2ccccc2)[C@]2(C(=O)O)C(=O)N[C@@H](Cc3ccccc3)[C@@H]2[C@@H]1C` [Compound 29, (1S,3aR,4S,7S,7aR)-1-Benzyl-6,7-dimethyl-3-oxo-4-(2-phenethoxyethyl)-1,2,3,4,7,7a-hexahydro-3aH-isoindole-3a-carboxylic acid] registered a rel. spheroid area of 1.05. The IC50 in experiment [2] and in experiment [3] was more than 50 µM in each case.
Regarding `C=C1[C@@H](C)[C@H]2[C@H](Cc3ccccc3)NC(=O)[C@]23OC(=O)/C=C/[C@H](O)CCC[C@@H](C)C/C=C/[C@H]3[C@@H]1O` [CytB (1), cytochalasin B, reference compound], in experiment [1], the rel. spheroid area is given as 0.26. For the same compound, the “effect on the actin cytoskeleton” value in experiment [4] is “profound effect on the actin cytoskeleton”. In addition, in experiment [2], the midpoint of inhibition, the IC50, lay at 26.2 ± 0.55 µM and the “selectivity index (SI)” value is on record as 0.01. The compound further returned an IC50 in experiment [3] of 0.27 ± 0.01 µM.
Taken in the same sequence, the figures for `C=C1[C@@H](C)[C@H]2[C@H](Cc3ccccc3)NC(=O)[C@]23[C@H](OC(C)=O)/C=C/[C@@](C)(O)C(=O)[C@@H](C)C/C=C/[C@H]3[C@@H]1O` [CytD (2), cytochalasin D, reference compound] were 0.23, “profound effect on the actin cytoskeleton”, 13.7 ± 1.2 µM, 0.17 and 2.36 ± 0.07 µM.

The term IC50 denotes the concentration that inhibits the measured activity by half. Low values mean inhibition by little substance, high ones a need for much substance.
